Eleven compounds from ChEMBL document CHEMBL1201862, “PubChem BioAssay data set” (2004) can be followed below.

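These data come from cells grown in 96-well plates and exposed to compound for 48 hours at five concentrations. GI50: concentration for 50% inhibition of growth.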 The source made the active and inactive calls. Rule as the data show it: active = GI50 up to about 1.1 µM and inactive = higher. Where only a bound is given, the exact number is not on record here.

Test systems include A498; EKVX; HCT-15; HOP-62; HT-29; IGROV-1; MDA-MB-231; NCI-H23; NCI-H522; OVCAR-4; OVCAR-8; PC-3; SK-MEL-28; SK-MEL-5; SK-OV-3; SN12C; UACC-62; UO-31; RPMI-8226; SNB-75.
Common to all, as to test: NCI-60 cell line screen, 48 h

Take `COc1cc(O)c2c(=O)c3ccccc3n(C)c2c1`: the GI50 in the assay on A498 was 90.4 µM (inactive); with EKVX, 0.555 µM (active); in the assay on HCT-15, 43.5 µM; in the assay with HOP-62 it was 15.9 µM (inactive); in the assay on HT-29, > 100 µM (inactive); in the assay on IGROV-1, > 100 µM (inactive). In addition, the GI50 in the assay with MDA-MB-231 is 71.3 µM (inactive); in the assay with NCI-H23, > 100 µM (inactive); in the assay on NCI-H522 it was 22.3 µM (inactive); in the assay with OVCAR-4 it was 89.3 µM (inactive); with OVCAR-8, 18.7 µM (inactive); in the assay with PC-3, > 100 µM (inactive). The GI50 with SK-MEL-28 was > 100 µM (inactive); in the assay on SK-MEL-5 it was 4.66 µM (inactive); with SK-OV-3 it was 26.8 µM (inactive); in the assay on SN12C it was > 100 µM (inactive); with UACC-62, 24.6 µM (inactive); in the assay on UO-31, 6.85 µM (inactive).
`CCCc1cn2c(/C=N/NC(=N)N)c(-c3cccc([N+](=O)[O-])c3)nc2s1`: the GI50 in the assay on A498 is 17.3 µM (inactive); in the assay with HCT-15 it was 1.84 µM; with HOP-62 it was 1.78 µM (inactive); in the assay with HT-29 it was 2.06 µM (inactive); with IGROV-1 it was 1.92 µM (inactive); in the assay with MDA-MB-231, 1.47 µM (inactive). The GI50 was 1.78 µM (inactive) with NCI-H23; 1.98 µM (inactive) in the assay on NCI-H522; 1.47 µM (inactive) with OVCAR-4; 1.88 µM (inactive) in the assay with OVCAR-8; 2.59 µM (inactive) in the assay with PC-3; 1.8 µM (inactive) in the assay with RPMI-8226. Besides, the GI50 in the assay on SK-MEL-28 is 1.43 µM (inactive); with SK-MEL-5, 1.98 µM (inactive); in the assay on SK-OV-3 it was 2.22 µM (inactive); in the assay with SN12C it was 1.21 µM (inactive); in the assay on SNB-75, 1.56 µM (inactive); in the assay on UACC-62, 1.61 µM (inactive). In addition, the GI50 in the assay on UO-31 was 1.9 µM (inactive).
For the compound `CN(C)c1ccc(/N=N/c2ccc3[nH]cnc3c2)cc1`, the GI50 with A498 is 20.4 µM (inactive); with EKVX, 33.5 µM (inactive); in the assay on HCT-15, 22.1 µM; with HT-29, 16.1 µM (inactive); in the assay with IGROV-1, 34.5 µM (inactive); in the assay on MDA-MB-231, 15.1 µM (inactive). Moreover, the GI50 was 45.5 µM (inactive) with NCI-H23; 19.3 µM (inactive) in the assay on NCI-H522; 24.2 µM (inactive) in the assay on OVCAR-4; 38.4 µM (inactive) in the assay with OVCAR-8; 33.1 µM (inactive) in the assay with PC-3; 19.5 µM (inactive) in the assay with RPMI-8226. Besides, the GI50 in the assay with SK-MEL-28 is 11.5 µM (inactive); with SK-MEL-5 it was 30.3 µM (inactive); in the assay with SK-OV-3, > 10 µM (inactive); with SN12C, 22 µM (inactive); with SNB-75 it was 31.6 µM (inactive); with UACC-62, 24.8 µM (inactive). The GI50 in the assay on UO-31 is 28.4 µM (inactive).
Consider `O=C1C(=Cc2ccco2)C(=O)C2CCCCC12` (stereo not given), for which the GI50 is > 100 µM (inactive) in the assay on A498; > 100 µM (inactive) in the assay with EKVX; more than 100 µM in the assay on HCT-15; > 100 µM (inactive) in the assay with HOP-62; > 100 µM (inactive) in the assay on HT-29; > 100 µM (inactive) with IGROV-1. Also, the GI50 in the assay on MDA-MB-231, in the assay with NCI-H23, with NCI-H522, in the assay on OVCAR-4, with OVCAR-8 and in the assay on PC-3 was > 100 µM (inactive) each time. For the same compound, the GI50 in the assay with RPMI-8226, in the assay with SK-MEL-28, in the assay with SK-MEL-5, in the assay with SK-OV-3, in the assay on SN12C and in the assay on SNB-75 was > 100 µM (inactive) each time. Also, in the assay on UACC-62, the GI50 is > 100 µM (inactive).
On to `Cc1ccc(S(=O)(=O)Oc2nc3ccccc3nc2OS(=O)(=O)c2ccc(C)cc2)cc1`, for which the GI50 was > 100 µM (inactive) with A498; > 100 µM (inactive) in the assay on EKVX; more than 100 µM in the assay on HCT-15; > 100 µM (inactive) with HT-29; > 100 µM (inactive) in the assay on IGROV-1; > 100 µM (inactive) with MDA-MB-231. For the same compound, the GI50 in the assay on NCI-H23 is > 100 µM (inactive); in the assay with NCI-H522, 16.9 µM (inactive); in the assay on OVCAR-8, > 100 µM (inactive); with PC-3 it was > 100 µM (inactive); in the assay with RPMI-8226, 40.9 µM (inactive); with SK-MEL-28 it was 28 µM (inactive). Besides, the GI50 was 28.5 µM (inactive) in the assay on SK-MEL-5; > 100 µM (inactive) with SK-OV-3; > 100 µM (inactive) with SN12C; > 100 µM (inactive) in the assay with SNB-75; > 100 µM (inactive) with UACC-62; > 100 µM (inactive) with UO-31.
On to `CC(=O)NC1CCC(NC(=O)OC(C)(C)C)C(NC(=O)OC(C)(C)C)C1` (stereo not given), for which the GI50 in the assay with A498 was > 100 µM (inactive); with HCT-15, more than 100 µM; in the assay with HOP-62, > 100 µM (inactive); in the assay with HT-29 it was > 100 µM (inactive); in the assay with IGROV-1, > 100 µM (inactive); in the assay on MDA-MB-231, > 100 µM (inactive). For the same compound, the GI50 with NCI-H23, in the assay with NCI-H522, in the assay on OVCAR-4, with OVCAR-8, in the assay on PC-3 and with RPMI-8226 was > 100 µM (inactive) throughout. The GI50 in the assay on SK-MEL-28, with SK-MEL-5, in the assay with SK-OV-3, in the assay on SN12C, in the assay on SNB-75 and in the assay with UACC-62 was > 100 µM (inactive) throughout. For the same compound, in the assay on UO-31, the GI50 was > 100 µM (inactive).
As for `CCOC1=NC(C(F)(F)F)(C(F)(F)F)N=C(N2CCCCC2)O1`, the GI50 with A498 was > 100 µM (inactive); with EKVX, > 100 µM (inactive); in the assay on HCT-15 it was more than 100 µM; with HOP-62, > 100 µM (inactive); in the assay on HT-29, > 100 µM (inactive); in the assay on IGROV-1, > 100 µM (inactive). For the same compound, the GI50 in the assay on MDA-MB-231, with NCI-H23, in the assay with NCI-H522, with OVCAR-4, in the assay with OVCAR-8 and with PC-3 was > 100 µM (inactive) throughout. Besides, the GI50 in the assay with RPMI-8226, in the assay on SK-MEL-28, in the assay with SK-MEL-5, in the assay with SN12C, in the assay with SNB-75 and in the assay on UACC-62 was > 100 µM (inactive) in each case. Moreover, the GI50 in the assay on UO-31 was > 100 µM (inactive).
As for `COC(=O)/C=c1/c2ccccc2n2nc3ccccc3c12`, the GI50 in the assay with A498 was 26.2 µM (inactive); with EKVX, > 100 µM (inactive); with HCT-15 it was 77.1 µM; in the assay with HOP-62, > 100 µM (inactive); in the assay with HT-29 it was 38.9 µM (inactive); in the assay with IGROV-1, > 100 µM (inactive). For the same compound, the GI50 in the assay with MDA-MB-231 was 16.4 µM (inactive); with NCI-H23, 66.5 µM (inactive); with NCI-H522, 29 µM (inactive); with OVCAR-4 it was 23 µM (inactive); in the assay with OVCAR-8, > 100 µM (inactive); with PC-3 it was > 100 µM (inactive). Besides, the GI50 was 18.4 µM (inactive) in the assay on RPMI-8226; > 100 µM (inactive) in the assay on SK-MEL-28; 31.6 µM (inactive) in the assay on SK-MEL-5; 16 µM (inactive) in the assay on SK-OV-3; 66.8 µM (inactive) in the assay on SN12C; 70.8 µM (inactive) in the assay on UACC-62. Besides, the GI50 in the assay on UO-31 was 62.2 µM (inactive).
Turning to `O=C(OCc1ccc([N+](=O)[O-])cc1)N1c2ccccc2[C@@]23O[C@]24CCC[C@H]3C#C/C=C\C#C[C@H]14`, the GI50 in the assay with A498 was > 100 µM (inactive); in the assay with EKVX, > 100 µM (inactive); in the assay on HCT-15 it was 89.1 µM; with HT-29, > 100 µM (inactive); in the assay with IGROV-1, > 100 µM (inactive); in the assay on MDA-MB-231, > 100 µM (inactive). In addition, the GI50 with NCI-H23 is > 100 µM (inactive); with NCI-H522, 25.8 µM (inactive); in the assay with OVCAR-4, > 100 µM (inactive); in the assay with OVCAR-8 it was > 100 µM (inactive); in the assay with PC-3, > 100 µM (inactive); with SK-MEL-28 it was > 100 µM (inactive). In addition, the GI50 in the assay on SK-MEL-5, in the assay on SK-OV-3, in the assay on SN12C, in the assay on UACC-62 and with UO-31 was > 100 µM (inactive) throughout.
On to `C/C(=N\c1ccc(N(C)C)cc1)c1ccccc1`, for which the GI50 in the assay with A498 was > 100 µM (inactive); with EKVX, 72.3 µM (inactive); with HCT-15 it was 18.5 µM; with HOP-62 it was 96.2 µM (inactive); in the assay on HT-29, 30.5 µM (inactive); with IGROV-1, 25.7 µM (inactive). Also, the GI50 with MDA-MB-231 was 18.3 µM (inactive); in the assay with NCI-H23, 21.1 µM (inactive); in the assay on NCI-H522, 16.7 µM (inactive); in the assay with OVCAR-4 it was 25.1 µM (inactive); in the assay with OVCAR-8 it was 35.4 µM (inactive); in the assay on PC-3, 23.4 µM (inactive). Also, the GI50 is 33.7 µM (inactive) in the assay on SK-MEL-28; 15.9 µM (inactive) in the assay with SK-MEL-5; > 100 µM (inactive) in the assay on SK-OV-3; 17.4 µM (inactive) in the assay on SN12C; 22.8 µM (inactive) with SNB-75; 17.1 µM (inactive) in the assay with UACC-62. The GI50 in the assay on UO-31 was 17.8 µM (inactive).
As to `Cc1ccc(-c2cc(C(F)(F)F)nn2-c2ccc(S(N)(=O)=O)cc2)cc1` [CELECOXIB], the GI50 is 15.1 µM (inactive) with A498; 17.9 µM (inactive) in the assay with EKVX; 15.9 µM with HCT-15; 67.9 µM (inactive) in the assay on HOP-62; 16.5 µM (inactive) in the assay on HT-29; 15.4 µM (inactive) with IGROV-1. The GI50 with MDA-MB-231 was 15.6 µM (inactive); in the assay with NCI-H23, 17.1 µM (inactive); with OVCAR-4, 12.4 µM (inactive); with OVCAR-8 it was 19.7 µM (inactive); in the assay with PC-3 it was 13.4 µM (inactive); in the assay with RPMI-8226 it was 3.85 µM (inactive). Moreover, the GI50 is 17.6 µM (inactive) in the assay with SK-MEL-28; 14.8 µM (inactive) in the assay with SK-MEL-5; 18.3 µM (inactive) in the assay on SK-OV-3; 15.6 µM (inactive) in the assay on SN12C; 15.6 µM (inactive) in the assay with SNB-75; 15.4 µM (inactive) with UACC-62. Also, in the assay with UO-31, the GI50 is 14.8 µM (inactive).
